Measured values taken from paper PMC6727188, “Image-Based Investigation: Biorelevant Solubility of α and γ Indomethacin” (Analytical Chemistry, 2019).
In brackets after ≈: the same amount, converted by molar mass.

Experiments:
[1] = Estimation of the free-energy difference between polymorphs from DSC melting data; assay type: physicochemical; settings: estimated from DSC melting data, extrapolated to room temperature
Experimental: DSC experiments were performed using a DSC823e (Mettler-Toledo, Greifensee, Switzerland) equipped with a refrigerated cooling system (Julabo FT 900, Seelbach, Germany). Nitrogen was used as a purge gas (50 mL/min).
Samples (2–5 mg) were tightly packed into standard aluminum crucibles (40 μL) with pierced lids. Two different procedures were used in these measurements. For determination of melting temperature and enthalpy, the samples were equilibrated at 25 °C for 3 min and then linearly heated with a heating rate of 10 °C/min to 180 °C. For determination of heat capacities, the samples were equilibrated at 140 °C and then heated up to 180 °C using a TOPEM-modulated heating program with a heating rate of 1 °C/min and a pulse height of 1 °C. Samples were measured in triplicate, and thermal events were analyzed using STARe software (Mettler-Toledo, Greifensee, Switzerland). Temperatures of melting, enthalpies of melting, and heat capacities were used to estimate the free-energy difference between the α and γ polymorphs.
The free-energy difference between two polymorphs can be estimated from their melting data or their respective solubility values. […]

[2] = Image-based single-particle-analysis (SPA) solubility measurement in a flow-through setup; assay type: physicochemical; settings: for solubility ratio (RS) FaSSGF/FaSSGFblk / solubility ratio (RS) FaSSGF/HCl / solubility ratio (RS) FaSSGFblk/HCl / solubility ratio (RS) FeSSIF/FeSSIFblk: same solid-state form in different media
Experimental: Dissolution experiments utilizing the SPA method were performed using a custom-made flow-through setup (Figure 1). The experiments were conducted at room temperature (22 °C) rather than at 37 °C in order to ensure controlled experimental conditions. The setup enables the trapping of particles under constant-flow conditions. In this way, dissolved molecules are continuously extracted from the chamber, and sink conditions are maintained. As the measurement can be started as soon as the solvent comes in contact with the entrapped particles, the actual solubility of a metastable form can be measured before any possible solid-state transformation occurs that could affect the solubility. In eq 1, at sink conditions, bulk concentration (Cb) can be disregarded because it is practically zero. This means the dissolution rate (dm/dt) is dependent only on the equilibrium solubility at the interface (CS); k is the setup-dependent transport-rate constant determined as described by Svanbäck.[20] [drawing 1] 1 For a single measurement, approximately 10 mL of dissolution medium and less than 0.1 mg of sample were used. Online images were acquired over 15 min through the transparent part of the flow-through chamber using a USB microscope (Gigastone S1-100, Irvine, CA). At least five particles per solid-state form per medium were measured. For the analysis of the image data, a MatLab script was previously developed by Svanbäck and co-workers.[20],[22] The script enables quantification of the particle’s morphology change (i.e., dissolution rate) and, consequently, calculation of the solubility according to eq 1.

physchem = assay type: physicochemical; settings: for solubility: thermodynamic from solid, Shake-flask solubility
Experimental: The solubilities of α and γ indomethacin were measured by the conventional shake-flask method in HCl (pH 1.6), FaSSGFblk, and FeSSIFblk. A detailed description of the methodology can be found in the Supporting Information on page S-2.
Effect of particle morphology on the solubility values measured by the SPA method was assessed by the
MatLab® regionprops toolbox. Three morphology-describing parameters were extracted; namely:
eccentricity, major axis length and minor axis length. The morphology parameters were then plotted against
solubility values of individual particles (Figure S1 and Figure S2). No specific effect of particle morphology
on solubility, in the size range studied (5-25 µm), was found.
Shake-flask solubility measurements
Indomethacin α and γ samples were placed in excess amount into vials. The vials were filled with HCl,
FaSSGFblk and FeSSIFblk media and left to stir on a rotating machine. This procedure was repeated in
triplicate for both solid-state forms and the three media. After 24h, 48h and 72h samples of 2 mL were
extracted and filtered (Whatman™ PVDF 13 mm with 0.45 µm pore size). After filtration, the samples of α
indomethacin were diluted four times with the corresponding medium […]
The drug concentration in the samples was determined using an Agilent High Performance Liquid
Chromatography (HPLC) 1260 system (Agilent Technologies, Germany). The Phenomenex Gemini NX-
C18, 3 µm, 100 x 4.6 mm column (Phenomenex, Torrance, CA) was used in the assays. The temperature of
the column was set to 30°C. Mobile phase used was 0.2% H3PO4:Acetonitrile (40:60, v:v) with flow rate of
1.5 mL/min. Injection volume was 20 µL and total run time 5 min. Detection was preformed at 270 nm.
Standard solutions of indomethacin in MilliQ:Ethanol (50:50, v:v) were prepared and analyzed with HPLC
to construct the calibration curve. All samples were analyzed in triplicate: 0.1, 0.5, 1, 10, 50 and 100 µg/mL
After 72h, the remaining excess solids, from vials were initially α form of indomethacin was placed, were
filtered and dried overnight in a vacuum oven. The next day, the excess solids were analyzed by XRPD and
XRPD diffractograms of the
remaining solids are presented in the Figure S3 and DSC thermograms in the Figure S4.
When comparing the shake-flask solubility values to the SPA solubility values, they are in the same rank
order and within the generally accepted interlaboratory variance, 0.6 log units.32 Moreover, a slight shift of
XRPD peaks to the left and appearance of a small melting peak at 159.3°C ± 0.1°C in the DSC thermograms
of the remaining excess solid samples indicate a presence of γ form (Figure S3 and S4). The presence of γ
form, in vials were initially pure α form was placed, would result in lower solubility ratio of α to γ solubility
measured by shake-flask method (1.7 ± 0.4) when compared to the ratio obtained by the SPA method (3.3 ±
0.5). With the SPA method, the actual solubility of the metastable α form was measured before any possible
solid-state transformation occurred that could affect the measurement. This was achieved by starting the
measurement as soon as the solvent came in contact with the sample and also by maintaining the sink
conditions in the flow-through cell.

[3] = set-up: method as in ref 9 (Hancock et al.); settings: 200 mL deionized water, 45 °C; ref 9 (Hancock et al.); cited from earlier work
[4] = set-up: method as in ref 15 (Fagerberg and co-workers); settings: 37 °C, μDISS profiler; ref 15 (Fagerberg and co-workers); cited from earlier work
[5] = SPA method, FaSSGF pH 1.6, 22 °C
[6] = SPA method, FaSSGFblk (blank FaSSGF) pH 1.6, 22 °C
[7] = SPA method, FeSSIF pH 5.0, 22 °C
[8] = SPA method, FeSSIFblk (blank FeSSIF) pH 5.0, 22 °C

COc1ccc2c(c1)c(CC(=O)O)c(C)n2C(=O)c1ccc(Cl)cc1 [α form, indomethacin]
free-energy difference ΔG between the α and γ polymorphs [1]: 12 ± 7 J/g
solubility [2, 5]: 0.29 ± 0.16 µg/mL (≈ 0.811 µM)
solubility [2, 6]: 0.14 ± 0.09 µg/mL (≈ 0.391 µM)
solubility [2, 7]: 15.7 ± 10.4 µg/mL (≈ 43.9 µM)
solubility [2, 8]: 2.79 ± 1.67 µg/mL (≈ 7.8 µM)
solubility ([2]; SPA method, HCl pH 1.6, 22 °C): 0.34 ± 0.20 µg/mL (≈ 0.95 µM)
ratio of α- to γ-solid-state-form solubility ([2]; SPA method, constant in all studied media (HCl, FaSSGFblk, FaSSGF, FeSSIFblk, FeSSIF)): 3.3 ± 0.5
solubility ratio (RS) FaSSGF/FaSSGFblk ([2]; SPA method): 2.1
solubility ratio (RS) FaSSGF/HCl ([2]; SPA method): 0.9
solubility ratio (RS) FaSSGFblk/HCl ([2]; SPA method): 0.4
solubility ratio (RS) FeSSIF/FeSSIFblk ([2]; SPA method): 5.6
free-energy difference ΔG between the α and γ polymorphs ([2]; from the SPA solubility ratios, molar units): 0.693 kcal/mol
free-energy difference ΔG between the α and γ polymorphs ([2]; from the α- to γ-solubility ratio obtained with the SPA method (eq 7), ambient temperature): 8 ± 1 J/g
free-energy difference ΔG between the α and γ polymorphs (physchem): 0.311 kcal/mol
ratio of α- to γ-solid-state-form solubility (physchem): 1.7 ± 0.4
solubility (physchem; pH 1.6, fassgf or other biorelevant): 0.5 ± 0.2 µg/mL (≈ 1.4 µM)
solubility (physchem; pH 1.6, simulated gastric fluid): 0.6 ± 0.1 µg/mL (≈ 1.68 µM)
solubility (physchem; pH 5, fassgf or other biorelevant): 9 ± 0.2 µg/mL (≈ 25.2 µM)
α- to γ-solubility ratio [3]: 1.1

COc1ccc2c(c1)c(CC(=O)O)c(C)n2C(=O)c1ccc(Cl)cc1 [γ form, indomethacin]
solubility [2, 5]: 0.10 ± 0.02 µg/mL (≈ 0.279 µM)
solubility [2, 6]: 0.04 ± 0.03 µg/mL (≈ 0.112 µM)
solubility [2, 7]: 3.80 ± 1.74 µg/mL (≈ 10.6 µM)
solubility [2, 8]: 0.94 ± 0.58 µg/mL (≈ 2.63 µM)
solubility ([2]; SPA method, HCl pH 1.6, 22 °C, listed as Indomethacin γ): 0.10 ± 0.05 µg/mL (≈ 0.279 µM)
solubility ratio (RS) FaSSGF/FaSSGFblk ([2]; SPA method): 2.5
solubility ratio (RS) FaSSGF/HCl ([2]; SPA method): 1.0
solubility ratio (RS) FaSSGFblk/HCl ([2]; SPA method): 0.4
solubility ratio (RS) FeSSIF/FeSSIFblk ([2]; SPA method): 4.0
Shake-flask solubility (physchem; pH 1.6): 0.3 ± 0.1 µg/mL
Shake-flask solubility (physchem; pH 5): 6.4 ± 0.1 µg/mL
fold increase in solubility from FeSSIFblk to FeSSIF [4]: 7.3 fold
